Activity calls are given as the source filed them. The calls are words filed in the database; no cut-off is given here.
Key:
[1] = species: Homo sapiens; experiment: Induction of DNA damage response in human NCI-H460/R cells transfected with MDR assessed as increase in H2AX expression at 10 uM after 24 hrs by alexa fluor 488-staining based flow cytometry; format: functional, cell-based
[2] = Cytotoxicity against mouse L5178 cells assessed as reduction in cell viability after 72 hrs by MTT assay; format: functional, cell-based; conditions: L5178, 72 h
[3] = Cytotoxicity against mouse L5178B1 cells transfected with pHa MDR1/A retrovirus assessed as reduction in cell viability after 72 hrs by MTT assay; format: functional, cell-based; conditions: MDR1, 72 h
[4] = test system: NCI-H460; experiment: Cytotoxicity against human NCI-H460 cells assessed as reduction in cell viability after 72 hrs by MTT assay; format: functional, cell-based; conditions: NCI-H460, 72 h
[5] = test system: A549; experiment: Cytotoxicity against human A549 cells assessed as reduction in cell viability after 72 hrs by MTT assay; format: functional, cell-based; conditions: A549, 72 h
[6] = test system: NCI-H661; experiment: Cytotoxicity against human NCI-H661 cells assessed as reduction in cell viability after 72 hrs by MTT assay; format: functional, cell-based; conditions: NCI-H661, 72 h
[7] = test system: HaCaT; experiment: Cytotoxicity against human HaCaT cells assessed as reduction in cell viability after 72 hrs by MTT assay; format: cell-based
[8] = test system: MCF7; experiment: Cytotoxicity against human MCF7 cells assessed as reduction in cell viability after 72 hrs by MTT assay; format: functional, cell-based; conditions: MCF7, 72 h
[9] = test system: SiHa; experiment: Cytotoxicity against human SiHa cells assessed as reduction in cell viability after 72 hrs by MTT assay; format: functional, cell-based
[10] = test system: NCI-H460; experiment: Induction of apoptosis in human NCI-H460 cells assessed as viable cells at 10 uM after 24 hrs by Annexin V/propidium iodide-staining based flow cytometry (reference value: 96.49 +/- 0.96%); format: functional; conditions: NCI-H460, 24 h, read-out: Activity
[11] = Induction of apoptosis in human NCI-H460/R cells transfected with MDR assessed as viable cells at 10 uM after 24 hrs by Annexin V/propidium iodide-staining based flow cytometry (reference value: 95.76 +/- 2.87%); format: functional; conditions: NCI-H460, 24 h, read-out: Activity
[12] = test system: A549; experiment: Induction of apoptosis in human A549 cells assessed as viable cells at 10 uM after 24 hrs by Annexin V/propidium iodide-staining based flow cytometry (reference value: 96.45 +/- 2.89%); format: functional; conditions: A549, 24 h, read-out: Activity
[13] = test system: NCI-H661; experiment: Induction of apoptosis in human NCI-H661 cells assessed as viable cells at 10 uM after 24 hrs by Annexin V/propidium iodide-staining based flow cytometry (reference value: 96.16 +/- 0.96%); format: functional; conditions: NCI-H661, 24 h, read-out: Activity
[14] = Induction of apoptosis in human HaCaT cells assessed as viable cells at 10 uM after 24 hrs by Annexin V/propidium iodide-staining based flow cytometry (reference value: 95.63 +/- 3.83%); format: cell-based; conditions: read-out: Activity
[15] = test system: NCI-H460; experiment: Induction of apoptosis in human NCI-H460 cells assessed as early apoptotic cells at 10 uM after 24 hrs by Annexin V/propidium iodide-staining based flow cytometry (reference value: 0.45 +/- 0.01%); format: functional
[16] = test system: A549; experiment: Induction of apoptosis in human A549 cells assessed as early apoptotic cells at 10 uM after 24 hrs by Annexin V/propidium iodide-staining based flow cytometry (reference value: 0.48 +/- 0.01%); format: functional
[17] = test system: NCI-H661; experiment: Induction of apoptosis in human NCI-H661 cells assessed as early apoptotic cells at 10 uM after 24 hrs by Annexin V/propidium iodide-staining based flow cytometry (reference value: 0.31 +/- 0.01%); format: functional
[18] = test system: NCI-H460; experiment: Induction of apoptosis in human NCI-H460 cells assessed as late apoptotic cells at 10 uM after 24 hrs by Annexin V/propidium iodide-staining based flow cytometry (reference value: 0.93 +/- 0.04%); format: functional
[19] = Induction of apoptosis in human NCI-H460/R cells transfected with MDR assessed as late apoptotic cells at 10 uM after 24 hrs by Annexin V/propidium iodide-staining based flow cytometry (reference value: 0.84 +/- 0.01%); format: functional
[20] = test system: A549; experiment: Induction of apoptosis in human A549 cells assessed as late apoptotic cells at 10 uM after 24 hrs by Annexin V/propidium iodide-staining based flow cytometry (reference value: 1.54 +/- 0.03%); format: functional
[21] = test system: HaCaT; experiment: Induction of apoptosis in human HaCaT cells assessed as late apoptotic cells at 10 uM after 24 hrs by Annexin V/propidium iodide-staining based flow cytometry (reference value: 2.26 +/- 0.09%); format: cell-based
[22] = test system: NCI-H460; experiment: Induction of apoptosis in human NCI-H460 cells assessed as necrotic cells at 10 uM after 24 hrs by Annexin V/propidium iodide-staining based flow cytometry (reference value: 2.13 +/- 0.02%); format: functional
[23] = Induction of apoptosis in human NCI-H460/R cells transfected with MDR assessed as necrotic cells at 10 uM after 24 hrs by Annexin V/propidium iodide-staining based flow cytometry (reference value: 3.17 +/- 0.13%); format: functional
[24] = test system: A549; experiment: Induction of apoptosis in human A549 cells assessed as necrotic cells at 10 uM after 24 hrs by Annexin V/propidium iodide-staining based flow cytometry (reference value: 1.52 +/- 0.05%); format: functional
[25] = test system: NCI-H460; experiment: Induction of DNA damage response in human NCI-H460 cells assessed as increase in H2AX expression at 10 uM after 24 hrs by alexa fluor 488-staining based flow cytometry; format: functional, cell-based
[26] = test system: NCI-H460; experiment: Induction of ROS generation in human NCI-H460 cells assessed as increase DHE positive cells at 10 uM after 24 hrs by DHE-staining based flow cytometry; format: functional, cell-based
[27] = test system: A549; experiment: Induction of ROS generation in human A549 cells assessed as increase DHE positive cells at 10 uM after 24 hrs by DHE-staining based flow cytometry; format: functional, cell-based
[28] = test system: NCI-H661; experiment: Induction of ROS generation in human NCI-H661 cells assessed as increase DHE positive cells at 10 uM after 24 hrs by DHE-staining based flow cytometry; format: functional, cell-based
[29] = species: Homo sapiens; experiment: Induction of ROS generation in human NCI-H460/R cells transfected with MDR assessed as increase DHE positive cells at 10 uM after 24 hrs by DHE-staining based flow cytometry; format: functional, cell-based
[30] = test system: HaCaT; experiment: Induction of ROS generation in human HaCaT cells assessed as increase DHE positive cells at 10 uM after 24 hrs by DHE-staining based flow cytometry; format: cell-based
[31] = test system: NCI-H460; experiment: Induction of DNA damage response in human NCI-H460 cells transfected with MDR assessed as increase in H2AX expression at 10 uM after 24 hrs by alexa fluor 488-staining based flow cytometry; format: functional, cell-based
[32] = test system: NCI-H661; experiment: Induction of DNA damage response in human NCI-H661 cells assessed as increase in H2AX expression at 10 uM after 24 hrs by alexa fluor 488-staining based flow cytometry; format: functional, cell-based
[33] = target: Serine/threonine-protein kinase Chk2 (Homo sapiens) (UniProt O96017); experiment: Induction of CHK2 phosphorylation at T68 in human MCF7 cells at 10 uM pretreated for 30 mins followed by 10 J/m'2 irradiation and measured after 1 hr by Western blot analysis; format: cell-based
[34] = Drug level using p-coumaric acid methyl ester assessed as compound formation by reverse phase-HPLC and HPLC-MS analysis based Fenton reaction assay; format: physicochemical

Sequence of Serine/threonine-protein kinase Chk2 (Homo sapiens) (O96017 whole entry): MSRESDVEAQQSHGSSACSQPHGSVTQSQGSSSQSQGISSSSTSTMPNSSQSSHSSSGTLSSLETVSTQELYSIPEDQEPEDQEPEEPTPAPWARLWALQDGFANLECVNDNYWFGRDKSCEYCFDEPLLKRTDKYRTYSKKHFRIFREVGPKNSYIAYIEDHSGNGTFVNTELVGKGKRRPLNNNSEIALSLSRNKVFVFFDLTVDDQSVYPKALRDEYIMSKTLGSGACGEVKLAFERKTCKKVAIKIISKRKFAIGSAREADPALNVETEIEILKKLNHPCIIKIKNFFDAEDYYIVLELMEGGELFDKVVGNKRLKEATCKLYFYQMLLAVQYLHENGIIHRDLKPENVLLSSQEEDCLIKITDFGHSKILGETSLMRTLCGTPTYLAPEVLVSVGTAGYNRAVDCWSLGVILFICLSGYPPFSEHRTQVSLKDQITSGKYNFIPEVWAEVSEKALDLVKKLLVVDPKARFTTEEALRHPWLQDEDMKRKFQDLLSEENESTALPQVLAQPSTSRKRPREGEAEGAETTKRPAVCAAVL

Question: Which Activity [1] does the source give for `COC(=O)/C=C/C1(O)C=CC(=O)C=C1` here?
Answer: Active

Question: What about the IC50 [2] of the same molecule?
Answer: 460 nM

Question: What about the IC50 [3] of the same molecule?
Answer: 620 nM

Question: What about the IC50 [4] of the same molecule?
Answer: 1850 nM

Question: And the IC50 [5]?
Answer: 4320 nM

Question: And the IC50 [6]?
Answer: 1440 nM

Question: And the IC50 [7]?
Answer: 4050 nM

Question: And the IC50 [8]?
Answer: 6220 nM

Question: And the IC50 [9]?
Answer: 8890 nM

Question: What about the viability at 10 µM [10] of the same molecule?
Answer: 89.1%

Question: What about the viability at 10 µM [11] of the same molecule?
Answer: 90%

Question: What about the viability at 10 µM [12] of the same molecule?
Answer: 92.8%

Question: And the viability at 10 µM [13]?
Answer: 45.4%

Question: What about the viability at 24 h, 10 µM [14] of the same molecule?
Answer: 91.5%

Question: And the Activity [15]?
Answer: 0.21%

Question: And the Activity [16]?
Answer: 0.72%

Question: And the Activity [17]?
Answer: 0.18%

Question: And the Activity [18]?
Answer: 3.35%

Question: And the Activity [19]?
Answer: 2.34%

Question: What about the Activity [20] of the same molecule?
Answer: 3.93%

Question: What about the Activity [21] of the same molecule?
Answer: 2.85%

Question: What about the Activity [22] of the same molecule?
Answer: 7.31%

Question: And the Activity [23]?
Answer: 7.51%

Question: What about the Activity [24] of the same molecule?
Answer: 2.57%

Question: What about the Activity [25] of the same molecule?
Answer: Active

Question: What about the Activity [26] of the same molecule?
Answer: Active

Question: What about the Activity [27] of the same molecule?
Answer: Active

Question: And the Activity [28]?
Answer: Active

Question: And the Activity [29]?
Answer: inactive

Question: And the Activity [30]?
Answer: Non-Toxic

Question: What about the Activity [31] of the same molecule?
Answer: Active

Question: What about the Activity [32] of the same molecule?
Answer: Active

Question: What about the Activity [33] of the same molecule?
Answer: Active

Question: And the Drug uptake [34]?
Answer: Active
